In patent publication US8278453B2, “Quinolizidinone M1 receptor positive allosteric modulators” (Merck Sharp & Dohme Corp., priority 2008, dated 2012) one finds EC50 data, which are given here for three molecules.

For the experiment, the target named is T1, acetylcholine muscarinic M1 receptor (Homo sapiens, UniProt P11229).
T1 construct: expressed in transfected cells; host or cells: CHOnfat (CHO cells expressing NFAT), line CHOnfat/hM1
T1 sequence (P11229 1-460): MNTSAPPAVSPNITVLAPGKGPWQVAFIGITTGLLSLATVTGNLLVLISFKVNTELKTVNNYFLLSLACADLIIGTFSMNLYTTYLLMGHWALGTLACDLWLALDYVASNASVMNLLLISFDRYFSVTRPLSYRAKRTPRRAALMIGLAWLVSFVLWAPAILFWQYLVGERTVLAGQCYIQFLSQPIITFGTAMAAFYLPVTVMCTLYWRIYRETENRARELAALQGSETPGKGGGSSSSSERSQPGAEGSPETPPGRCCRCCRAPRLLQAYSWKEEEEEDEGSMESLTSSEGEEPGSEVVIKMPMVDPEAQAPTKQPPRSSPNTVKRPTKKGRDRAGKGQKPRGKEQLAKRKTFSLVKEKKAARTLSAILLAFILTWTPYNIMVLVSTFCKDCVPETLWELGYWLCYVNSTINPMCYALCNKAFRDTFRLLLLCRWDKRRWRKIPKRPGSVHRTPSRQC
Put plainly: muscarinic M1 FLIPR intracellular calcium assay (positive allosteric modulation, EC20 acetylcholine). It is filed as cell-based. The note with it: inflection point from FLIPR values; CHOnfat/hM1 cells; 4 min preincubation, then EC20 acetylcholine (3 nM final); read-out: IP Value. The method, then: The assay studies the effect of one or several concentrations of test compounds on basal or acetylcholine-stimulated Ca^2+ levels using FLIPR.
Compounds are prepared and subjected to a preincubation period of 4 min. Thereafter, a single EC20 concentration of acetylcholine is added to each well (3 nM final). The intracellular Ca^2+ level of each sample is measured and compared to an acetylcholine control to determine any modulatory activity.
Cells: CHOnfat/hM1, hM2, hM3 or hM4 cells are plated 24 hr before the assay at a density of 18,000 cells/well (100 μL) in a 384 well plate. CHOnfat/hM1 and CHOnfat/hM3 Growth Medium: 90% DMEM (Hi Glucose); 10% HI FBS; 2 mM L-glutamine; 0.1 mM NEAA; Pen-Strep; and 1 mg/ml Geneticin, are added. For M2Gqi5CHOnfat and M4Gqi5CHOnfat cells, an additional 600 μg/ml hygromycin is added.
Equipment: 384 well plate, 120 μL addition plate; 96-well Whatman 2 ml Uniplate Incubator, 37° C., 5% CO2; Skatron EMBLA-384 Plate Washer; Multimek Pipetting System; Genesis Freedom 200 System; Mosquito System; Temo Nanolitre Pipetting System; and FLIPR^384 Fluorometric Imaging Plate Reader System are used.
Buffers. Assay Buffer: Hanks Balanced Salt Solution, with 20 mM Hepes, 2.5 mM Probenecid (Sigma P-8761) first dissolved in 1N aqueous NaOH, 1% Bovine Serum Albumin (Sigma A-9647). Dye Loading Buffer: Assay Buffer plus 1% Fetal Bovine Serum and Fluo-4AM/Pluronic Acid Mixture. 2 mM Fluo-4AM ester stock in DMSO (Molecular Probes F-14202) Concentration of 2 μM in buffer for a final concentration of 1 μM in Assay. 20% Pluronic Acid Solution stock, with a concentration of 0.04% in Buffer, 0.02% in Assay.
65 μl of 2 mM Fluo-4AM are mixed with 130 μL of 20% Pluronic Acid. The resulting solution and 650 μL FBS is added to the assay buffer for a total volume of 65 mL. Positive Controls: 4-Br-A23187: 10 mM in DMSO; final concentration 10 μM. […]
After 60 min, the cells are washed three times with 100 μL of buffer, leaving 30 μL of buffer in each well. […] A signal test to check background fluorescence and basal fluorescence signal is performed. […]
In general terms: Calcium flux is commonly read through the fluorescence of an indicator in the cells.
For `O=C(O)c1cc(Cc2ccc(Cl)cc2)c2ccccn2c1=O` [Example 3, 1-(4-Chlorobenzyl)-4-oxo-4H-quinolizine-3-carboxylic acid], the EC50 amounted to 201 nM.

On to `O=C(O)c1cc(Cc2ccc(-c3ccccc3)cc2)c2ccccn2c1=O` [Example 4, 1-(Biphenyl-4-ylmethyl)-4-oxo-4H-quinolizine-3-carboxylic acid], for which the EC50 was 110 nM.

On to `Cn1cc(-c2ccc(Cc3cc(C(=O)O)c(=O)n4ccccc34)nc2)cn1` [Example 5, 1-{[5-(1-Methyl-1H-pyrazol-4-yl)pyridin-2-yl]methyl}-4-oxo-4H-quinolizine-3-carboxylic acid], for which the EC50 was 213 nM.
